Laboratory results taken from publication PMC2843910 (Biochemical pharmacology, 2008).

Target: T1, ABCG2 (Homo sapiens, UniProt Q9UNQ0)
T1 sequence (Q9UNQ0 1-655): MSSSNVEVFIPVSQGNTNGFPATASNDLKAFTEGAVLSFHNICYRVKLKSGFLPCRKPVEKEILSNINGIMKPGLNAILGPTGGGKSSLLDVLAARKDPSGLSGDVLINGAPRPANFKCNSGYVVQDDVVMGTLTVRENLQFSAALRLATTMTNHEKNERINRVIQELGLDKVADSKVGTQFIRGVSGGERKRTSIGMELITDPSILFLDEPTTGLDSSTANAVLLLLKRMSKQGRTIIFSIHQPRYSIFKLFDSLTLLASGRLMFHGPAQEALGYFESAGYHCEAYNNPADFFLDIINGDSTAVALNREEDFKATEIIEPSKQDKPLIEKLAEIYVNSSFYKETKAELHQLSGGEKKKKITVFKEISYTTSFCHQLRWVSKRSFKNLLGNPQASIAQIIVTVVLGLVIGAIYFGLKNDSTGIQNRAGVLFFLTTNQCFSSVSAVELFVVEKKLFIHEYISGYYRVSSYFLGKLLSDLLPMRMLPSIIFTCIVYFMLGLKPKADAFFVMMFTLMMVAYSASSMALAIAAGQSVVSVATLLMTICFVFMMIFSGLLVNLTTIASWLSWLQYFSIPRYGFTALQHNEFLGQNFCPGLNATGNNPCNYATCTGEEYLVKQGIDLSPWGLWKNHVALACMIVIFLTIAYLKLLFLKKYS
Format: cell-based

With `CN(Cc1cnc2nc(N)nc(N)c2n1)c1ccc(C(=O)N[C@@H](CCC(=O)O)C(=O)O)cc1` [[^3H]-methotrexate] the “ATP-dependent uptake into membrane vesicles (rapid filtration)” value was “inhibited the rates of both methotrexate and E217βG uptake in the membrane vesicles of ABCG2-482-R5”.
